This data set concerns GENE-TOX genotoxicity assays, various organisms and cells. Description: GENE-TOX mutagenicity studies. Particulars: for call: Assay Type: In vivo carcinogenicity studies.
Setting [1] is: Species/Cell Type: Escherichia coli polA (W3119 vs P3478), Assay Type: Rec-assay, DNA effects (bacterial DNA repair), Assay Code: RE1T, Evaluation Type: Evaluation A (Pre-1980).
Where [2] appears, read: Species/Cell Type: Salmonella typhimurium (one or more of the five standard strains: TA98, TA100, TA1535, TA1537, and TA1538), Assay Type: Histidine reverse gene mutation, Ames assay, Assay Code: SALT, Evaluation Type: Evaluation A (Pre-1980).
The mark [3] stands for this setting: Species/Cell Type: Nonhuman, Assay Type: Sister-chromatid exchange (SCE) in vitro, Assay Code: SC2T, Evaluation Type: Evaluation B (Post-1980).
Setting [4] is: Species/Cell Type: Mammalian polychromatic erythrocytes, Assay Type: Micronucleus test, chromosome aberrations, Assay Code: MNTT, Evaluation Type: Evaluation A (Pre-1980).
The mark [5] stands for this setting: Species/Cell Type: Salmonella typhimurium (one or more of the five standard strains: TA98, TA100, TA1535, TA1537, and TA1538), Assay Type: Histidine reverse gene mutation, Ames assay, Assay Code: SAL+*, Activation: With metabolic activation, Evaluation Type: Evaluation A (Pre-1980).
Setting [6] is: Species/Cell Type: Drosophila melanogaster, Assay Type: Sex-linked recessive lethal gene mutation, Assay Code: SRLT, Evaluation Type: Evaluation A (Pre-1980).

Activity calls are given as the source filed them. The rule behind the calls is not given here.

`NCCS`: the mutagenic call under setting [1] was “no conclusion”; the mutagenic call (Species/Cell Type: Human lymphocytes, Assay Type: Sister-chromatid exchange (SCE) in vitro, Assay Code: SCLT, Evaluation Type: Evaluation B (Post-1980)) was “no conclusion”; the mutagenic call (Species/Cell Type: Human, Assay Type: Sister-chromatid exchange (SCE) in vitro, Assay Code: SC1T, Evaluation Type: Evaluation B (Post-1980)) is on record as “no conclusion”; the mutagenic call (Species/Cell Type: Neurospora crassa, Assay Type: Reverse gene mutation, Assay Code: NER-, Evaluation Type: Evaluation A (Pre-1980)) is “inactive; negative”; the mutagenic call (Species/Cell Type: Nonhuman, Assay Type: Sister-chromatid exchange (SCE) in vitro, Assay Code: SC2+D, Dose Response: With dose response, Evaluation Type: Evaluation B (Post-1980)) was “active; positive”; the mutagenic call under setting [2] was “no conclusion”.

`COc1cc2c(c3oc(=O)c4c(c13)CCOC4=O)C1CC(O)OC1O2` (stereo not given): under setting [2], the mutagenic call is listed as “no conclusion”.

As to `O=c1[nH]cnc2nc[nH]c12`, the mutagenic call reads like this: (Species/Cell Type: Allium cepa, Assay Type: Chromosome aberrations, Assay Code: ALC-, Evaluation Type: Evaluation A (Pre-1980)) “inactive; negative”; (Species/Cell Type: Arabidopsis species, Assay Type: Gene mutation, Assay Code: ARM-, Evaluation Type: Evaluation A (Pre-1980)) “inactive; negative”; under setting [3], “no conclusion”.

Regarding `CC(N)=S=O`, the mutagenic call (Species/Cell Type: Mammalian polychromatic erythrocytes, Assay Type: Micronucleus test, chromosome aberrations, Assay Code: MNT+U, Dose Response: Unconfirmed positive response, Evaluation Type: Evaluation B (Post-1980)) is “active; positive”.

As for `NC(=O)N1c2ccccc2[C@H](O)[C@@H](O)c2ccccc21`, the mutagenic call runs as follows: (Species/Cell Type: Human lymphocytes, Assay Type: Sister-chromatid exchange (SCE) in vitro, Assay Code: SCL+, Evaluation Type: Evaluation B (Post-1980)) “active; positive”; (Species/Cell Type: Human, Assay Type: Sister-chromatid exchange (SCE) in vitro, Assay Code: SC1+, Evaluation Type: Evaluation B (Post-1980)) “active; positive”.

As for `[Cl][W]([Cl])([Cl])([Cl])([Cl])[Cl]`, where the note is “Species/Cell Type: Syrian hamster embryo (SA7/SHE) cells, Assay Type: Cell transformation, viral enhanced, Assay Code: CT7-, Evaluation Type: Evaluation A (Pre-1980)”, the mutagenic call is “inactive; negative”.

On to `Cc1ccc2cc3c(ccc4ccccc43)c3c2c1C(O)C3O` (stereo not given), for which the mutagenic call (Species/Cell Type: Mouse prostate cells, Assay Type: Cell transformation, Assay Code: CTM+D, Dose Response: With dose response, Evaluation Type: Evaluation A (Pre-1980)) is “active; positive”.

For `CS(=O)(=O)OCCNP1(=O)OCCCN1CCCl` (stereo not given), the mutagenic call (Species/Cell Type: Mammalian polychromatic erythrocytes, Assay Type: Micronucleus test, chromosome aberrations, Assay Code: MNT+U, Dose Response: Unconfirmed positive response, Evaluation Type: Evaluation A (Pre-1980)) was “active; positive”.

As for `CNC(=O)Nc1nc(-c2ccccc2)cs1`, the mutagenic call (Species/Cell Type: Salmonella typhimurium, Serratia marcesens, Assay Type: Forward and reverse gene mutation, host-mediated assay, Assay Code: HM2+, Evaluation Type: Evaluation A (Pre-1980)) was “active; positive”.

On to `Cc1ccc(S(=O)(=O)NCl)cc1`, for which the mutagenic call (Species/Cell Type: Mammalian polychromatic erythrocytes, Assay Type: Micronucleus test, chromosome aberrations, Assay Code: MNTT, Evaluation Type: Evaluation B (Post-1980)) is recorded as “no conclusion”.

`Cc1c2ccccc2c2ccc3cccc4ccc1c2c43`: the mutagenic call (Species/Cell Type: Chinese hamster lung (V79) cells, Assay Type: Forward gene mutation at the HPRT or ouabain locus, Assay Code: V79+*, Activation: With metabolic activation, Evaluation Type: Evaluation A (Pre-1980)) is “active; positive”. The call (Species/Cell Type: Nonhuman, Assay Code: CCG+, Evaluation Type: Evaluation A (Pre-1980)) was “active; positive”.

Consider `CN[C@H]1Cc2c[nH]c3c(Cl)ccc(c23)[C@]12C=C(C)C(=O)O2`, for which, under “Species/Cell Type: Bacillus subtilis (H17 vs M45), Assay Type: Rec-assay, spot test, DNA effects (bacterial DNA repair), Assay Code: REW-, Evaluation Type: Evaluation A (Pre-1980)”, the mutagenic call was “inactive; negative”.

Take `O=[N+]([O-])[O-].O=[N+]([O-])[O-].O=[N+]([O-])[O-].[Rh+3]`: the mutagenic call (Species/Cell Type: Bacillus subtilis (H17 vs M45), Assay Type: Rec-assay, spot test, DNA effects (bacterial DNA repair), Assay Code: REW+, Evaluation Type: Evaluation A (Pre-1980)) was “active; positive”.

For `C=C(Cl)CCl`, the mutagenic call (Species/Cell Type: Salmonella typhimurium (one or more of the five standard strains: TA98, TA100, TA1535, TA1537, and TA1538), Assay Type: Histidine reverse gene mutation, Ames assay, Assay Code: SAL+, Evaluation Type: Evaluation A (Pre-1980)) was “active; positive”.

For `CC[N+](=O)[O-]`, under setting [4], the mutagenic call is recorded as “no conclusion”.

Take `CCCOS(C)(=O)=O`: the mutagenic call runs as follows: (Species/Cell Type: Hordeum vulgare (barley), Assay Type: Chromosome aberrations, Assay Code: HOC+, Evaluation Type: Evaluation A (Pre-1980)) “active; positive”; (Species/Cell Type: Hordeum vulgare (barley), Assay Type: Gene mutation, Assay Code: HOM+D, Dose Response: With dose response, Evaluation Type: Evaluation A (Pre-1980)) “active; positive”; (Species/Cell Type: Mammalian germ cells, Sex: Male, Assay Type: Chromosome aberrations in vivo, Assay Code: CY9T, Evaluation Type: Evaluation A (Pre-1980)) “no conclusion”; (Species/Cell Type: Mouse germ cells, Sex: Male, Assay Type: Unscheduled DNA synthesis (UDS) in vivo, DNA effects, Assay Code: UDT+, Evaluation Type: Evaluation A (Pre-1980)) “active; positive”; (Species/Cell Type: Mouse, Sex: Male, Assay Type: Specific locus test, gene mutation, Assay Code: SLT+, Evaluation Type: Evaluation A (Pre-1980)) “active; positive”; (Species/Cell Type: Rodents, Sex: Male, Assay Type: Dominant lethal test, Assay Code: DLT+, Evaluation Type: Evaluation A (Pre-1980)) “active; positive”.

For the compound `Cc1cc(C)cc(C2CO2)c1` (stereo not given), the mutagenic call was “active; positive” (Species/Cell Type: Human lymphocytes, Assay Type: Sister-chromatid exchange (SCE) in vitro, Assay Code: SCL+D, Dose Response: With dose response, Evaluation Type: Evaluation B (Post-1980)) and “active; positive” (Species/Cell Type: Human, Assay Type: Sister-chromatid exchange (SCE) in vitro, Assay Code: SC1+D, Dose Response: With dose response, Evaluation Type: Evaluation B (Post-1980)).

`Cc1ccc([N+](=O)[O-])c(O)c1`: the mutagenic call (Species/Cell Type: Allium cepa, Assay Type: Chromosome aberrations, Assay Code: ALC+, Evaluation Type: Evaluation A (Pre-1980)) is “active; positive”.

On to `COC(=O)NC(=S)Nc1ccccc1N`, for which the mutagenic call was “active; positive” (Species/Cell Type: Aspergillus nidulans, Assay Type: Aneuploidy, chromosome aberrations, Assay Code: ASN+, Evaluation Type: Evaluation A (Pre-1980)) and “inactive; negative” (Species/Cell Type: Aspergillus nidulans, Assay Type: Mitotic recombination, Assay Code: ASG-, Evaluation Type: Evaluation A (Pre-1980)).

In the case of `Nc1ccc2ccc3cccc4ccc1c2c34`, under setting [5], the mutagenic call is “active; positive”.

Consider `O=c1[nH]c(Cl)c(Cl)cc1Cl`, for which the mutagenic call was “no conclusion” under setting [3] and “inactive; negative” (Species/Cell Type: Nonhuman, Assay Type: Sister-chromatid exchange (SCE) in vivo, Assay Code: SC3-, Evaluation Type: Evaluation B (Post-1980)).

As for `Cc1cc(O)c2c(c1)C(=O)c1cc(O)cc(O[C@@H]3O[C@H](CO)[C@@H](O)[C@H](O)[C@H]3O)c1C2=O`, under setting [5], the mutagenic call is “active; positive”.

Turning to `CN(C)c1ccc2nc3c(C(=O)O)cc(=O)c(O)c-3oc2c1`, under setting [6], the mutagenic call is listed as “no conclusion”.

With `COc1cc(Cc2cnc(N)nc2N)cc(OC)c1OC`, the mutagenic call runs as follows: (Species/Cell Type: Neurospora crassa, Assay Type: Aneuploidy, chromosome aberrations, Assay Code: NEN+, Evaluation Type: Evaluation A (Pre-1980)) “active; positive”; (Species/Cell Type: Nonhuman, Assay Type: Sister-chromatid exchange (SCE) in vitro, Assay Code: SC2+, Evaluation Type: Evaluation B (Post-1980)) “active; positive”.

`CC(=O)C(N=Nc1ccc(-c2ccc(N=NC(C(C)=O)C(=O)Nc3ccccc3)c(Cl)c2)cc1Cl)C(=O)Nc1ccccc1` (stereo not given): the call (Species/Cell Type: Nonhuman, Assay Code: CCG-, Evaluation Type: Evaluation A (Pre-1980)) is “inactive; negative”.

As for `C[C@]12C=CC(=O)C=C1CC[C@@H]1[C@@H]2CC[C@@]2(C)[C@H]1CC[C@]2(C)O`, for the setting “Species/Cell Type: Human, Sex: Male, Assay Type: Sperm morphology, Assay Code: SPH+, Evaluation Type: Evaluation A (Pre-1980)”, the mutagenic call was “active; positive”.

In the case of `O=C(O)COc1cc(Cl)c(Cl)cc1Cl`, the mutagenic call was “inactive; negative” (Species/Cell Type: Drosophila melanogaster, Assay Type: Aneuploidy, sex chromosome gain, chromosome aberrations, Assay Code: DAG-M-F, Evaluation Type: Evaluation A (Pre-1980)); “inactive; negative” (Species/Cell Type: Drosophila melanogaster, Assay Type: Aneuploidy, whole sex chromosome loss, chromosome aberrations, Assay Code: DAC-M-F, Evaluation Type: Evaluation A (Pre-1980)); “active; positive” (Species/Cell Type: Drosophila melanogaster, Assay Type: Sex-linked recessive lethal gene mutation, Assay Code: SRL+, Evaluation Type: Evaluation A (Pre-1980)); “no conclusion” under setting [6]; “no conclusion” under setting [4]; “active; positive” (Species/Cell Type: Nonhuman bone marrow, Assay Type: Chromosome aberrations, in vivo, Assay Code: CY#+D, Dose Response: With dose response, Evaluation Type: Evaluation A (Pre-1980)). Besides, the mutagenic call reads like this: (Species/Cell Type: Saccharomyces cerevisiae, Assay Type: Reverse gene mutation, Assay Code: YER+, Evaluation Type: Evaluation A (Pre-1980)) “active; positive”; (Species/Cell Type: Salmonella typhimurium, Serratia marcesens, Assay Type: Forward and reverse gene mutation, host-mediated assay, Assay Code: HM2T, Evaluation Type: Evaluation A (Pre-1980)) “no conclusion”; (Species/Cell Type: Vicia faba, Assay Type: Chromosome aberrations, Assay Code: VIC+, Evaluation Type: Evaluation A (Pre-1980)) “active; positive”.

For the compound `O=C(OCN=Nc1ccccc1)c1ccccc1`, the mutagenic call under setting [1] is “no conclusion”.

With `CCCCN(CC(=O)O)N=O`, the mutagenic call under setting [2] is on record as “no conclusion”.
